Results taken from patent US20140005163A1 (NOVARTIS AG, priority 2010, published 2014).

How the values were obtained:
PI3K delta = target: T1, PI3K delta (Homo sapiens, UniProt O00329); assay: PI3K delta kinase assay (Kinase-Glo luminescence); type: biochemical
T1 construct: for the full-length p110-d subunit are generated and fused by overlapping PCR; p85(iSH2) fusion partner (see partner chain) (N); His tag (C); made in house; host or cells: baculovirus; Tn5 (Trichoplusia ni) or TiniPro insect cells
In short: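 Lipid kinase activity of a His-tagged p110δ full-length/p85 iSH2 fusion (10 nM) toward bovine liver phosphatidylinositol (10 μg/mL) at 1 μM ATP, pH 7.5, 60 min, room temperature. ATP consumption is quantified by luciferase-based luminescence. Four-parameter logistic fitting gives IC50.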

[1] = system: PKB Ser473 phosphorylation in Rat1-myr-HA-p110 alpha cells; assay: Reverse protein array assay, PKB Ser473 phosphorylation in Rat1-myr-p110 alpha cells; type: cell-based; details: 0.5 h, pAkt Ser473, 30 minutes compound incubation, read-out: p-PKB IC50
In short: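 After at least 20 h of culture, the p110 isoform-transfected Rat1 lines receive compound in an 8-step dilution series, keeping DMSO at 0.2%, for 30 minutes. Cells are then lysed and lysates arrayed on chips for fluorescence detection of Ser473-phosphorylated PKB.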

T1 sequence (O00329 with tags, fused parts or gaps limits assumed): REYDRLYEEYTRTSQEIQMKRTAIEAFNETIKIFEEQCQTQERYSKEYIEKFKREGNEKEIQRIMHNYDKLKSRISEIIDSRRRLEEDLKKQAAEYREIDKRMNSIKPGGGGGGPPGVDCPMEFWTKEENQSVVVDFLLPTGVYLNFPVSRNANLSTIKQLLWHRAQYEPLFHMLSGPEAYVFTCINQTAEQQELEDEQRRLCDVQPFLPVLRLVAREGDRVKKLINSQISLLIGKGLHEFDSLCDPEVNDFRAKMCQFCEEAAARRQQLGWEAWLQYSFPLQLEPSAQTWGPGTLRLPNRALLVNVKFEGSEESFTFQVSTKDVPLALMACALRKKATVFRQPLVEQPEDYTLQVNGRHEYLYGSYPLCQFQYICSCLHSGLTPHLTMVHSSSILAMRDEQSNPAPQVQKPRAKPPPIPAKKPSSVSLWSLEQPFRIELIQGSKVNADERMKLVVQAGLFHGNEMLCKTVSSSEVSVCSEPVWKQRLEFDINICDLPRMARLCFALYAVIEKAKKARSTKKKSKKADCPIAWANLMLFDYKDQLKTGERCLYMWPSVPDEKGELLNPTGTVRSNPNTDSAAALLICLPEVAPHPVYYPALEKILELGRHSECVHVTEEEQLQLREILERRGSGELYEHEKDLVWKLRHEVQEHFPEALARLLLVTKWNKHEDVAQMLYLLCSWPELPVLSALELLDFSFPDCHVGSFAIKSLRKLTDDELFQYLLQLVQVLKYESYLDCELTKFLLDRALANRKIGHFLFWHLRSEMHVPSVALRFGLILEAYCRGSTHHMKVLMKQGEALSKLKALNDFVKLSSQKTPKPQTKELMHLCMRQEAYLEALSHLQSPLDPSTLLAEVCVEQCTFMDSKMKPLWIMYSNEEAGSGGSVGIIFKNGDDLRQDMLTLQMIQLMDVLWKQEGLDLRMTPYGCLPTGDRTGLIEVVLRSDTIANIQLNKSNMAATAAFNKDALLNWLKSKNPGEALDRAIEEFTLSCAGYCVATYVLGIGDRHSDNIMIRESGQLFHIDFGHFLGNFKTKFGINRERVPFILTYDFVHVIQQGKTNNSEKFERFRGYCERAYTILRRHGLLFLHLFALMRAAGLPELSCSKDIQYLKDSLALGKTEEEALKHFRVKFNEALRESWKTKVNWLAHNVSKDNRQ

Row | SMILES | IC50 (PI3K delta) | IC50 [1]
1 | COc1ccc(-c2ccc3ncc4c(c3c2)n(-c2cc(C)nn2C)c(=O)n4C)cc1OC [Example 1.4, 8-(3,4-Dimethoxy-phenyl)-1-(2,5-dimethyl-2H-pyrazol-3-yl)-3-methyl-1,3-dihydro-imidazo[4,5-c]quinolin-2-one] | 83 nM | 22 nM
2 | Cc1nn(C)c(C)c1-n1c(=O)n(C)c2cnc3ccc(-c4ccc(CO)nc4)cc3c21 [Example 16.4, 8-(6-Hydroxymethyl-pyridin-3-yl)-3-methyl-1-(1,3,5-trimethyl-1H-pyrazol-4-yl)-1,3-dihydro-imidazo[4,5-c]quinolin-2-one] | 161 nM | 234 nM
3 | Cn1cc(-n2c(=O)n(C)c3cnc4ccc(-c5ccc(CO)nc5)cc4c32)c(Cl)n1 [Example 16.5, 1-(3-chloro-1-methyl-1H-pyrazol-4-yl)-8-(6-hydroxymethyl-pyridin-3-yl)-3-methyl-1,3-dihydro-imidazo[4,5-c]quinolin-2-one] | 3 nM | 8 nM
4 | Cn1nccc1-n1c(=O)n(C)c2cnc3ccc(-c4ccc(NCCO)nc4)cc3c21 [Example 21.1, 8-[6-(2-Hydroxy-ethylamino)-pyridin-3-yl]-3-methyl-1-(2-methyl-2H-pyrazol-3-yl)-1,3-dihydro-imidazo[4,5-c]quinolin-2-one] | 116 nM | 191 nM
5 | CCn1cc(-n2c(=O)n(C)c3cnc4ccc(-c5cncc(N)c5)cc4c32)c(C)n1 [Example 45.2, 8-(5-Amino-pyridin-3-yl)-1-(1-ethyl-3-methyl-1H-pyrazol-4-yl)-3-methyl-1,3-dihydro-imidazo[4,5-c]quinolin-2-one] | 4 nM | 26 nM
6 | Cc1nn(C(C)C)cc1-n1c(=O)n(C)c2cnc3ccc(-c4cncc(N)c4)cc3c21 [Example 45.3, 8-(5-Amino-pyridin-3-yl)-1-(1-isopropyl-3-methyl-1H-pyrazol-4-yl)-3-methyl-1,3-dihydro-imidazo[4,5-c]quinolin-2-one] | 10 nM | 14 nM
7 | Cc1cnn(C)c1-n1c(=O)n(C)c2cnc3ccc(-c4cncc(OC(C)C)c4)cc3c21 [Example 58.3, 1-(2,4-Dimethyl-2H-pyrazol-3-yl)-8-(5-isopropoxy-pyridin-3-yl)-3-methyl-1,3-dihydro-imidazo[4,5-c]quinolin-2-one] | 118 nM | 383 nM
8 | COCCOc1cncc(-c2ccc3ncc4c(c3c2)n(-c2cn(C)nc2Cl)c(=O)n4C)c1 [Example 59.2, 1-(3-Chloro-1-methyl-1H-pyrazol-4-yl)-8-[5-(2-methoxy-ethoxy)-pyridin-3-yl]-3-methyl-1,3-dihydro-imidazo[4,5-c]quinolin-2-one] | 9 nM | 12 nM
9 | CCOc1ncc(-c2ccc3ncc4c(c3c2)n(-c2cn(C)nc2C)c(=O)n4C)cc1NC(C)=O [Example 65, N-{5-[1-(1,3-Dimethyl-1H-pyrazol-4-yl)-3-methyl-2-oxo-2,3-dihydro-1H-imidazo[4,5-c]quinolin-8-yl]-2-ethoxy-pyridin-3-yl}-acetamide] | 175 nM | 47 nM
10 | CCOc1cc(-c2ccc3ncc4c(c3c2)n(-c2c(C)nn(CC(=O)N(C)C)c2C)c(=O)n4C)cnc1C [Example 85.3, 2-{4-[8-(5-Ethoxy-6-methyl-pyridin-3-yl)-3-methyl-2-oxo-2,3-dihydro-imidazo[4,5-c]quinolin-1-yl]-3,5-dimethyl-pyrazol-1-yl}-N,N-dimethyl-acetamide] | 46 nM | 296 nM
11 | CCNc1cc(-c2ccc3ncc4c(c3c2)n(-c2cn(CC)nc2C)c(=O)n4C)cnc1C [Example 87.3, 8-(5-Ethylamino-6-methyl-pyridin-3-yl)-1-(1-ethyl-3-methyl-1H-pyrazol-4-yl)-3-methyl-1,3-dihydro-imidazo[4,5-c]quinolin-2-one] | 6 nM | < 5 nM
12 | COc1ncc(-c2ccc3ncc4c(c3c2)n(-c2cn(C)nc2Cl)c(=O)n4C)cc1N [Example 89, 8-(5-Amino-6-methoxy-pyridin-3-yl)-1-(3-chloro-1-methyl-1H-pyrazol-4-yl)-3-methyl-1,3-dihydro-imidazo[4,5-c]quinolin-2-one] | 9 nM | < 5 nM
13 | Cc1nn(C)cc1-n1c(=O)n(C)c2cnc3ccc(-c4ccnc(OC(C)C)c4)cc3c21 [Example 92, 1-(1,3-Dimethyl-1H-pyrazol-4-yl)-8-(2-isopropoxy-pyridin-4-yl)-3-methyl-1,3-dihydro-imidazo[4,5-c]quinolin-2-one] | 127 nM | 244 nM
14 | CCN(C)c1ccc(-c2ccc3ncc4c(c3c2)n(-c2cn(C)nc2C)c(=O)n4C)cn1 [Example 98.1, 1-(1,3-Dimethyl-1H-pyrazol-4-yl)-8-[6-(ethyl-methyl-amino)-pyridin-3-yl]-3-methyl-1,3-dihydro-imidazo[4,5-c]quinolin-2-one] | 48 nM | < 5 nM
15 | Cc1nn(C)cc1-n1c(=O)n(C)c2cnc3ccc(-c4ccc(N5CCNCC5)nc4)cc3c21 [Example 126, 1-(1,3-Dimethyl-1H-pyrazol-4-yl)-3-methyl-8-(6-piperazin-1-yl-pyridin-3-yl)-1,3-dihydro-imidazo[4,5-c]quinolin-2-one] | 102 nM | 141 nM
16 | Cc1nn(C)cc1-n1c(=O)n(C)c2cnc3ccc(-c4cnc5ccn(C)c5c4)cc3c21 [Example 129, 1-(1,3-Dimethyl-1H-pyrazol-4-yl)-3-methyl-8-(1-methyl-1H-pyrrolo[3,2-b]pyridin-6-yl)-1,3-dihydro-imidazo[4,5-c]quinolin-2-one] | 9 nM | 21 nM
17 | CNc1ncc(-c2ccc3ncc4c(c3c2)n(-c2cn(C(C)C)nc2C)c(=O)n4C)cc1F [Example 141.3, 8-(5-Fluoro-6-methylamino-pyridin-3-yl)-1-(1-isopropyl-3-methyl-1H-pyrazol-4-yl)-3-methyl-1,3-dihydro-imidazo[4,5-c]quinolin-2-one] | 9 nM | 10 nM
18 | Cc1nn(C(C)C)cc1-n1c(=O)n(C)c2cnc3ccc(-c4cnc(N)c(F)c4)cc3c21 [Example 142.3, 8-(6-Amino-5-fluoro-pyridin-3-yl)-1-(1-isopropyl-3-methyl-1H-pyrazol-4-yl)-3-methyl-1,3-dihydro-imidazo[4,5-c]quinolin-2-one] | 18 nM | 10 nM
19 | CNc1ncc(-c2ccc3ncc4c(c3c2)n(-c2c(C)nn(C)c2C)c(=O)n4C)cc1C(F)(F)F [Example 144.1, 3-Methyl-8-(6-methylamino-5-trifluoromethyl-pyridin-3-yl)-1-(1,3,5-trimethyl-1H-pyrazol-4-yl)-1,3-dihydro-imidazo[4,5-c]quinolin-2-one] | 13 nM | 26 nM
20 | Cc1nn(C)c(C)c1-n1c(=O)n(C)c2cnc3ccc(-c4cnc(N)c(Cl)c4)cc3c21 [Example 148.1, 8-(6-Amino-5-chloro-pyridin-3-yl)-3-methyl-1-(1,3,5-trimethyl-1H-pyrazol-4-yl)-1,3-dihydro-imidazo[4,5-c]quinolin-2-one] | 21 nM | 63 nM
21 | Cc1nn(C)cc1-n1c(=O)n(C)c2cnc3ccc(-c4cnc(N)c(Cl)c4)cc3c21 [Example 148.2, 8-(6-Amino-5-chloro-pyridin-3-yl)-1-(1,3-dimethyl-1H-pyrazol-4-yl)-3-methyl-1,3-dihydro-imidazo[4,5-c]quinolin-2-one] | 39 nM | < 5 nM
